# Reference: patent US20050244971A1, “Transgenic plants with enhanced stress tolerance” (KOREA KUMHO PETROCHEMICAL CO., LTD., priority 2002, published 2005)
# Key:
# [1] = test system: 35S-ABF and wild type plants; assay: Effect of ACC and IAA on growth of 35S-ABF versus wild type plants; parameters: species or system Arabidopsis thaliana; settings: in vivo
# Description: According to the studies, ABA-mediated inhibition of germination is negatively regulated by ethylene, whereas ethylene signaling components are required for the ABA inhibition of root growth (Beaudoin et al., 2000; Ghassemian et al., 2000). […] When exposed to progressive drought, new lateral roots take a short and tuberized form. The process, known as ‘drought rhizogenesis’, is impaired not only in the ABA deficient aba-1 and ABA-insensitive abi1-1 mutants but also in the auxin resistant axr1-3 mutant. To test whether the overexpression of ABF3 or ABF4 affected ethylene or auxin sensitivity, we compared the effects of the ethylene precursor 1-aminocyclopropane-1-carboxylic acid (ACC) and indole-3-acetic acid (IAA) on the growth of 35S-ABF and wild type plants. […] However, leaves of 35S-ABF4 plants have a tendency to have epinastic curvature when grown on plates (FIG. 4A), which is generally attributed to ethylene action under stress conditions (Jackson, 1997). […] Thus, the result implies that auxin signaling pathway(s) might have been perturbed in 35S-ABF4 plants.
# wild type plants (Ler) [2] = assay: ABA dose-response of germination; format: in vivo, Arabidopsis thaliana; settings: 0.5 μM ABA, fully emerged radicles counted after 3 days
# Experimental: (§1) FIG. 2. ABA Sensitivity of 35S-ABF3 and 35S-ABF4 Plants. (A) Growth of transgenic plants on medium containing 0.5 μM ABA. Seeds were germinated and grown for 12 days. (B) Growth of transgenic plants on medium containing 0.25 μM ABA. Seeds were germinated on the medium for 3 days and representative plants are shown. (C) ABA dose-response of germination. Seeds, 6 months old after harvest and pre-chilled at 4° C. for 4 days, were germinated on media containing various concentrations of ABA, and seedlings with fully emerged radicles were counted after 3 days. Experiments were done in triplicates (n=50 each), and the bars show standard errors. (D) ABA dose-response of root growth. Seeds were germinated for 4 days on ABA-free medium and the seedlings (n=6) were transferred to media containing various concentrations of ABA. Root elongation was measured 5 days after the transfer. The experiments were performed more than four times, sometimes using different transgenic lines, and the results were consistent. The small bars represent standard errors. Transgenic lines A319 (ABF3) and A405 (ABF4) were used.
# (§2) To see the stage-specificity of ABA response, ABA dose-response was examined during and after germination. […] Likewise, root growth of the 35S-ABF transgenic lines was hypersensitive to ABA (FIG. 2D). At 0.5 μM ABA, wild type root growth was 84% of its control rate, whereas those of 35S-ABF4 and 35S-ABF3 plants were 35% and 51% of their control rates, respectively. At 1 μM ABA, root growth of the 35S-ABF4 plants reduced to 6% and the 35S-ABF3 plants to 37%. […] Wild type plants grew at 62% of the control rate at the same ABA concentration.
# [3] = test system: 35S-ABF4 transgenic plants (line A405); assay: ABA dose-response of germination; format: in vivo, Arabidopsis thaliana; settings: 0.5 μM ABA, fully emerged radicles counted after 3 days
# Experimental: as §1, §2
# [4] = test system: 35S-ABF3 transgenic plants (line A319); assay: ABA dose-response of germination; format: in vivo, Arabidopsis thaliana; settings: 0.5 μM ABA, fully emerged radicles counted after 3 days
# Experimental: as §1, §2
# [5] = test system: 35S-ABF4 transgenic plants (line A405); assay: ABA dose-response of root growth; format: in vivo; settings: Arabidopsis thaliana, 120 h, root elongation 5 days after transfer, read-out: root growth, % of control rate
# Experimental: as §1, §2
# [6] = test system: 35S-ABF3 transgenic plants (line A319); assay: ABA dose-response of root growth; format: in vivo; settings: Arabidopsis thaliana, 120 h, root elongation 5 days after transfer, read-out: root growth, % of control rate
# Experimental: as §1, §2
# 35S-ABF plants [7] = assay: Germination and growth on ABA-containing medium; format: in vivo, Arabidopsis thaliana; settings: ABA 0.5 μM or above
# Experimental: as §1
# (§3) To test whether ABF3 or ABF4 overexpression affected ABA sensitivity, 35S-ABF3 and 35S-ABF4 transgenic plants were germinated and grown on media containing various concentrations of ABA. […]
# wild type plants [8] = assay: Germination and growth on ABA-containing medium; format: in vivo, Arabidopsis thaliana; settings: ABA 0.5 μM or above
# Experimental: as §1, §3
# wild type plants (Ler) [9] = assay: ABA dose-response of root growth; format: in vivo, Arabidopsis thaliana
# Experimental: as §1, §2
# [10] = test system: 35S-ABF transgenic plants; assay: ABA dose-response of root growth; format: in vivo, Arabidopsis thaliana; settings: ABA concentration above 5 μM
# Experimental: as §1, §2
# wild type plants [11] = settings: NaCl below 100 mM; wild type (also aba1, abi1, abi2 mutants)
# Experimental: (§4) FIG. 3. […] (A) Salt effect on germination. Seeds of Ler, aba1-1, abi1-1, abi2-1, 35S-ABF3 (line A319) and 35S-ABF4 (line A405) were plated after 4 days of cold treatment on media containing 50, 100, or 150 mM NaCl, and germination (fully open cotyledons) was scored after 4 days. Experiments were done in triplicates (n=50 each), and standard errors are smaller than the symbols. (B) Salt effect on newly germinated seedling growth. Seeds of the same transgenic lines were germinated for 4 days on media containing 100 mM of NaCl, KCl or mannitol, and representative seedlings are shown. (C) Glucose response of 35S-ABF transgenic plants. Seeds were germinated and grown for 14 days on the regular growth medium or the same medium supplemented with 3% glucose or mannitol at vertical position. A319, A333, A405, and A406 indicate transgenic lines.
# (§5) High concentrations of salts inhibit the germination of Arabidopsis (Werner and Finkelstein, 1995; Leon-Kloosterziel et al., 1996; Quesada et al., 2000; Zhu, 2000). […] To test this, 35S-ABF transgenic plants were germinated on media containing various concentrations of NaCl.
# (§6) Plants were grown at 22° C. under long day condition (16 hr light/8 hr dark cycle) aseptically or on soil. […]
# 35S-ABF plants [12] = assay: Salt effect on germination and newly germinated seedling growth; format: in vivo, Arabidopsis thaliana
# Experimental: as §4, §5, §6
# 35S-ABF transgenic lines = assay: Glucose response of seedlings; format: in vivo, Arabidopsis thaliana; settings: 3% mannitol; both wild type and 35S-ABF transgenic plants
# Experimental: as §4
# Plants were grown at 22° C. under long day condition (16 hr light/8 hr dark cycle) aseptically or on soil. For soil growth, seeds were sown on 1:1:1 mixture of vermiculite, perlite and peat moss irrigated with 0.1% Hyponex, placed at 4° C. for 4 days in the dark to break residual dormancy, and transferred to normal growth conditions. Unless otherwise stated, the plants were watered once a week. […]
structure (smiles),measurement,setting,value
"O=C(O)Cc1c[nH]c2ccccc12 [IAA, indole-3-acetic acid]",difference in growth response between 35S-ABF and wild type plants,[1],did not see any differences
"NC1(C(=O)O)CC1 [ACC, 1-aminocyclopropane-1-carboxylic acid]",difference in growth response between 35S-ABF and wild type plants,[1],did not see any differences
"CC1=CC(=O)CC(C)(C)[C@@]1(O)/C=C/C(C)=C\C(=O)O [ABA, abscisic acid]",germination,wild type plants (Ler) [2],80%
same,germination efficiency,[3],28%
same,germination efficiency,[4],8%
same,activity at 0.5 µM,[5]; 0.5 μM ABA,35%
same,activity at 1 µM,[5]; 1 μM ABA,6%
same,activity at 0.5 µM,[6]; 0.5 μM ABA,51%
same,activity at 1 µM,[6]; 1 μM ABA,37%
same,growth after radicle emergence,35S-ABF plants [7],completely arrested
same,growth after radicle emergence,wild type plants [8],continued to grow and develop
same,root growth,wild type plants (Ler) [9]; ABA concentration above 5 μM,still continued to grow
same,activity at 0.5 µM,"wild type plants (Ler) [9]; Arabidopsis thaliana, 120 h, 0.5 μM ABA, root elongation 5 days after transfer, read-out: root growth, % of control rate",84%
same,activity at 1 µM,"wild type plants (Ler) [9]; Arabidopsis thaliana, 120 h, 1 μM ABA, root elongation 5 days after transfer, read-out: root growth, % of control rate",62%
same,root growth,[10],almost completely arrested
[Cl-].[Na+] [NaCl],germination,wild type plants [11],not affected
same,germination and growth,35S-ABF plants [12]; 100 mM NaCl,significantly affected
OC[C@@H](O)[C@@H](O)[C@H](O)[C@H](O)CO [mannitol],growth inhibition,35S-ABF transgenic lines,significantly but similarly
same,response of germination/seedling growth,"35S-ABF plants [12]; mannitol, same or twice the concentration (100 mM)",normal
